Reference: BindingDB's records for doi:10.1016/j.chembiol.2016.02.015 (Max Planck Institute of Molecular Physiology, 2016)
pIC50: −log10 of the molar value.

Legend:
[1] = biological target: Casein kinase I isoform alpha (Homo sapiens, UniProt P48729); test: Radiometric-Based Assay (CK1α)
Protocol: Single-point measurements analyses and subsequent dose-dependent investigations of selected pteridine derivatives for inhibition of CK1α were performed at Reaction Biology (USA) using a radiometric-based assay and ATP concentration of 10 µM. For more details related to the experimental conditions employed please consult the following websites: http://www.reactionbiology.com/webapps/site/KinaseDetail.aspx.

[2] = biological target: Casein kinase I isoform delta (Homo sapiens, UniProt P48730); test: KinaseGlo Plus Luminescent Assay; conditions: pH 7.5
Sequence of Casein kinase I isoform delta (P48730 whole entry, canonical isoform): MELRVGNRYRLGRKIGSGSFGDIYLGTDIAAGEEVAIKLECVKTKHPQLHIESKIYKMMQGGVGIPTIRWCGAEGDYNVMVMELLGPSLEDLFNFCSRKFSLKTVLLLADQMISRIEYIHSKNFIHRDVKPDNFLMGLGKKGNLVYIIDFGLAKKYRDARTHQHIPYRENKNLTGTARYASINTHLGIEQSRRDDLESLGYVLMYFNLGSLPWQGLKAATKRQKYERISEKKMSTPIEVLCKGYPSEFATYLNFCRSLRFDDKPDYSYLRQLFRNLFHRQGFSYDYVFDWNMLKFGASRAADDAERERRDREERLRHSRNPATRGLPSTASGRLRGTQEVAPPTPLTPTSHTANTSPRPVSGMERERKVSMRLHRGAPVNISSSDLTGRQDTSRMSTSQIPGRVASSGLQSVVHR
Protocol: (§1) A stock solution of 5 % DMSO (BioReagent for molecular biology, Sigma Aldrich) in water was prepared. The CK1 substrate peptide RRKDLHDDEEDEAMSITA (Jena Bioscience, cat. no. PE-206, 2 mM stock solution in water) was diluted in water to a final concentration of 250 μM. CK1δ or CK1Ɛ kinases were diluted with CK1 dilution buffer to 50 ng / µL. In addition, fresh Reaction buffer was prepared containing 250 mM Tris-HCl (pH 7.5), 50 mM MgCl2, 5 mM DTT and 0.5 mg / mL bovine serum albumin (BSA). Compounds were serially diluted in 5 % DMSO solution to the desired concentrations (maximal concentration employed in the assay was 50 µM). Additional samples included blank sample containing Reaction buffer, water and CK1δ / CK1Ɛ kinase and control sample containing Reaction buffer, CK1 substrate peptide and CK1δ / CK1Ɛ kinase. CK1 substrate peptide, Reaction buffer and CK1δ / CK1Ɛ kinase stock solutions were mixed in 1:1:1 ratio. 6 μL of this mixtur

[3] = biological target: Casein kinase I isoform epsilon (Homo sapiens, UniProt P49674); test: KinaseGlo Plus Luminescent Assay; conditions: pH 7.5
Sequence of Casein kinase I isoform epsilon (P49674 whole entry, canonical isoform): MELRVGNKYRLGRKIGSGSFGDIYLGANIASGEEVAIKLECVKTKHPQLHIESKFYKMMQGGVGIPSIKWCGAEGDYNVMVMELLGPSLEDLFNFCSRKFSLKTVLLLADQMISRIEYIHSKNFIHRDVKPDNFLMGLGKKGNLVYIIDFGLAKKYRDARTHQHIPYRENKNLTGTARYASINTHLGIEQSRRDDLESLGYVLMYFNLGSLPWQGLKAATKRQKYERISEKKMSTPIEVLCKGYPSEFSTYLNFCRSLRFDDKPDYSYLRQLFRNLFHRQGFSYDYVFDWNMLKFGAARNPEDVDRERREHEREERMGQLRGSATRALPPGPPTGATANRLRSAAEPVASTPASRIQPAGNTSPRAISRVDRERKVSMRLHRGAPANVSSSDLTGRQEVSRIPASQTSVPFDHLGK
Protocol: as §1

[4] = biological target: T1, Epidermal growth factor receptor [1-973] (Homo sapiens, UniProt P00533); test: Radiometric-Based Assay (Epiblastin A)
T1 construct: 1-973
T1 sequence (P00533 1-973): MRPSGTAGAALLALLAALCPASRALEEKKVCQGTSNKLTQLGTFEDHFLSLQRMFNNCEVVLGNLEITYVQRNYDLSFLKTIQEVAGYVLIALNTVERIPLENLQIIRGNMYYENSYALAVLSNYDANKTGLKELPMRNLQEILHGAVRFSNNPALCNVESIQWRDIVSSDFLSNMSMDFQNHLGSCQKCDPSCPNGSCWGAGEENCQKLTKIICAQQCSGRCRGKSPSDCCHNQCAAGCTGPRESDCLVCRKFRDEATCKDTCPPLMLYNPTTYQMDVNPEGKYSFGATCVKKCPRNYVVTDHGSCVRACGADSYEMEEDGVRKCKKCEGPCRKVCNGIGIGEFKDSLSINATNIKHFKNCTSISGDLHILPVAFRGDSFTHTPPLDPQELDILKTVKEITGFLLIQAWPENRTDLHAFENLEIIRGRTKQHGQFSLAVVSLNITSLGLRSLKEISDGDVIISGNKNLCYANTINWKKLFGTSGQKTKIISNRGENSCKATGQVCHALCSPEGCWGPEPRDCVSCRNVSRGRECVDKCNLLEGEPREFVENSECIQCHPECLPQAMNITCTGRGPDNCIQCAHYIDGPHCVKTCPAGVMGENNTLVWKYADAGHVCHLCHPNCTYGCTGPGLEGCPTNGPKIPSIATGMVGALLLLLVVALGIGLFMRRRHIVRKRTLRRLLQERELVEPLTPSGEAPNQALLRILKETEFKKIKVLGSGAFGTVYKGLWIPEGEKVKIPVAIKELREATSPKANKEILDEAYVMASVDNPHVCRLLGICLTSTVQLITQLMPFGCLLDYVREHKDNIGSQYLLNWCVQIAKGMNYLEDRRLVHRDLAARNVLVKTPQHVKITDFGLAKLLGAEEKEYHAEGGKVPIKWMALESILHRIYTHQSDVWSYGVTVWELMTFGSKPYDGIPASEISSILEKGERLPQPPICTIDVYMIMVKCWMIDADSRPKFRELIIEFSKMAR
From the text: (§2) Dose-dependent investigations of Epiblastin A against BrSK1, Egfr, eEF2k, Mknk2, Ripk2 and Stk10 have been performed under the same experimental setup, i.e. at Km-ATP value. Half-maximal inhibitory concentrations (IC50) were obtained by fitting the obtained data with three parameter nonlinear regression analysis using GraphPad Prism version 6.00 for Windows (GraphPad Software, USA). For more details related to the experimental conditions employed at Eurofins please consult the following website: http://www.eurofins.com/pharma-services/pharma-discovery-services/services/in-vitropharmacology/kinases/biochemical.aspx

[5] = biological target: T2, Eukaryotic elongation factor 2 kinase (Homo sapiens, UniProt O00418); test: Radiometric-Based Assay (Epiblastin A)
T2 sequence (O00418 whole entry): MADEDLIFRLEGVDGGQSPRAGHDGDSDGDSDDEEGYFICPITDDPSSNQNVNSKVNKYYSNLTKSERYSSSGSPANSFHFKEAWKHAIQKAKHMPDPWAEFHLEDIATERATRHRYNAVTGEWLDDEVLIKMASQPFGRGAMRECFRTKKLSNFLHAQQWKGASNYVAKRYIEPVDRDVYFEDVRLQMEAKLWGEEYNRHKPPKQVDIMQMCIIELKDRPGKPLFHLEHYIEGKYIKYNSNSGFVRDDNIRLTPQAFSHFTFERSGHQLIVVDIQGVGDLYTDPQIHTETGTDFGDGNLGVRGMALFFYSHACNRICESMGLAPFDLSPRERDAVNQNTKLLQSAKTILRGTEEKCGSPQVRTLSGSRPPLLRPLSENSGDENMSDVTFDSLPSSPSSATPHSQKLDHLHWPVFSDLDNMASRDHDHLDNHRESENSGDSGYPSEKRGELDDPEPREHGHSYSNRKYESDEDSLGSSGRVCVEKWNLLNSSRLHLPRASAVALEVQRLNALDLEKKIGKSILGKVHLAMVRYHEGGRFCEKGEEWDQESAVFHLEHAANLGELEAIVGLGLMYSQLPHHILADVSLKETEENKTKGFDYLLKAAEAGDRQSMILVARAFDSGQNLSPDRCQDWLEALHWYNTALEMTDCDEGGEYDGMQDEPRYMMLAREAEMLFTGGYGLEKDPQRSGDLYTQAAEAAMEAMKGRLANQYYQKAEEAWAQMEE
From the text: as §2

[6] = biological target: MAP kinase-interacting serine/threonine-protein kinase 2 (Homo sapiens, UniProt Q9HBH9); test: Radiometric-Based Assay (Epiblastin A)
Sequence of MAP kinase-interacting serine/threonine-protein kinase 2 (Q9HBH9 whole entry): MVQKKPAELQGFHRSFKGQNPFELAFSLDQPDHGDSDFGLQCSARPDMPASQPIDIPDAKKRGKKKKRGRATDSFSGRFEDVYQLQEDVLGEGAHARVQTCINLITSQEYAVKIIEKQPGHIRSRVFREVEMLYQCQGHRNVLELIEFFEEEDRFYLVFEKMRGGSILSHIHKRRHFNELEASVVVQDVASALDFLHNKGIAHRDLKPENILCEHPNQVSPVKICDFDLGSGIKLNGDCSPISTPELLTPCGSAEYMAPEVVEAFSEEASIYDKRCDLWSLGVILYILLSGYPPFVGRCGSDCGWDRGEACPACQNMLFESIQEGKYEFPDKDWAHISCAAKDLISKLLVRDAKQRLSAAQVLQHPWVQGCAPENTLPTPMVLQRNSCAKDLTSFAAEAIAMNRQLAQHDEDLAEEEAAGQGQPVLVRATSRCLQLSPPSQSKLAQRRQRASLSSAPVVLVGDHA
From the text: as §2

[7] = biological target: Receptor-interacting serine/threonine-protein kinase 2 (Homo sapiens, UniProt O43353); test: Radiometric-Based Assay (Epiblastin A)
Sequence of Receptor-interacting serine/threonine-protein kinase 2 (O43353 whole entry): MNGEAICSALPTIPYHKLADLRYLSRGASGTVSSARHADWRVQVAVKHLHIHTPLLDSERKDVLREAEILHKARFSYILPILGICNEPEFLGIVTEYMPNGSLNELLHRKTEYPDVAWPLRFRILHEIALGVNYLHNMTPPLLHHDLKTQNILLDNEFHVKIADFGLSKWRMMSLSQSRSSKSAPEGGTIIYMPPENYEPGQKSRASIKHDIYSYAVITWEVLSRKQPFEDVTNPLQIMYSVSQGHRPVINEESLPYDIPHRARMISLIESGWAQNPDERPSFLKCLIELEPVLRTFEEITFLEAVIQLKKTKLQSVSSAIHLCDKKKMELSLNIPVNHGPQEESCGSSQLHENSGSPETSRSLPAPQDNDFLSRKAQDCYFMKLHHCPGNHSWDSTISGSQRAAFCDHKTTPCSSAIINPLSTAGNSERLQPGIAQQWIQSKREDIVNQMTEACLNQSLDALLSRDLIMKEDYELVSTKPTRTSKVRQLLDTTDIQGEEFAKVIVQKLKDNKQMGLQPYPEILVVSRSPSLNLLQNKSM
From the text: as §2

[8] = biological target: T3, Serine/threonine-protein kinase BRSK1 (Homo sapiens, UniProt Q8TDC3); test: Radiometric-Based Assay (Epiblastin A)
T3 sequence (Q8TDC3 whole entry): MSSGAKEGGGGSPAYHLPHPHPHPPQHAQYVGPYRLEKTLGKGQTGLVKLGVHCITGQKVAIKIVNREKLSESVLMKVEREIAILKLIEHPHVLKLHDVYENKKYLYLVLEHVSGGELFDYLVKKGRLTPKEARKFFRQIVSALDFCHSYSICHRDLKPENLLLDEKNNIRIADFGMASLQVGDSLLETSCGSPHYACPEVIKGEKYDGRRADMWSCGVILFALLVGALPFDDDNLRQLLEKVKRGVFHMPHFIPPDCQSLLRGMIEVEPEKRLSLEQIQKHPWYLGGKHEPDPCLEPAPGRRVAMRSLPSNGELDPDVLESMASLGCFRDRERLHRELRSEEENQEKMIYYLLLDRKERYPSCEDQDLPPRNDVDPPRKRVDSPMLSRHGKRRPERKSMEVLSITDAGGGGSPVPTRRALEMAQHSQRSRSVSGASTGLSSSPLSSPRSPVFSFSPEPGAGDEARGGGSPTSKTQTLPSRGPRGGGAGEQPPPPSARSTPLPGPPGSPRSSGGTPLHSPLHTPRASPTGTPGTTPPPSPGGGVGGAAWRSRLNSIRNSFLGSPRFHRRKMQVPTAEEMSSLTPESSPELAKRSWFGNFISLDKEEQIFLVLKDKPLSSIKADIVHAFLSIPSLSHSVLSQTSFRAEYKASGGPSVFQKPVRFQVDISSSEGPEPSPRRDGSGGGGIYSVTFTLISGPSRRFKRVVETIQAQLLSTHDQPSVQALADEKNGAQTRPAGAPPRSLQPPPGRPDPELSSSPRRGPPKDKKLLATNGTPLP
From the text: as §2

Sequence of Casein kinase I isoform alpha (P48729 whole entry, canonical isoform): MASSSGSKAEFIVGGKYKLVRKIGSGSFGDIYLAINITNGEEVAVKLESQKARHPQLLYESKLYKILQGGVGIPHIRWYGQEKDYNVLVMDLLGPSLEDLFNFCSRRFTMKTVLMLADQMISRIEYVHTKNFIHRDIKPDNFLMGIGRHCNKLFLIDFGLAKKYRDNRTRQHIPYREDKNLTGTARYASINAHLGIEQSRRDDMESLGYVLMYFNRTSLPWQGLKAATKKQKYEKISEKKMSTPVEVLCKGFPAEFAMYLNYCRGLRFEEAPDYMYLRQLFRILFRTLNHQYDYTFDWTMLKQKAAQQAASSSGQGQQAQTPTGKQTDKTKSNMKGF

| pIC50 [1] | pIC50 [2] | pIC50 [3] | SMILES | other results |
| --- | --- | --- | --- | --- |
| 5.25 | 5.55 | 6.22 | Nc1nc(N)c2nc(-c3csc4ccccc34)c(N)nc2n1 [6-(1-benzothiophen-3-yl)pteridine-2,4,7-triamine (31)] |  |
| 4.25 |  | 5.37 | Nc1nc(N)c2nc(-c3ccc(Cl)cc3Cl)c(N)nc2n1 [6-(2,4-dichlorophenyl)pteridine-2,4,7-triamine (25)] |  |
|  |  | 4.42 | Nc1nc(N)c2nc(-c3cc(F)ccc3F)c(N)nc2n1 [6-(2,5-difluorophenyl)pteridine-2,4,7-triamine (28)] |  |
|  |  | 4.41 | Nc1nc(N)c2nc(-c3c(Cl)cccc3Cl)c(N)nc2n1 [6-(2,6-dichlorophenyl)pteridine-2,4,7-triamine (24)] |  |
|  | 4.45 | 4.29 | Nc1nc(N)c2nc(-c3c(F)cccc3F)c(N)nc2n1 [6-(2,6-difluorophenyl)pteridine-2,4,7-triamine (27)] |  |
|  |  | 4.55 | Nc1nc(N)c2nc(-c3ccccc3F)c(N)nc2n1 [6-(2-fluorophenyl)pteridine-2,4,7-triamine (23)] |  |
|  | 4.49 | 4.91 | Nc1cccc(-c2nc3c(N)nc(N)nc3nc2N)c1 [6-(3-aminophenyl)pteridine-2,4,7-triamine (21)] |  |
| 5.03 | 5.60 |  | Nc1nc(N)c2nc(-c3cccc(Br)c3)c(N)nc2n1 [6-(3-bromophenyl)pteridine-2,4,7-triamine (18)] |  |
| 4.48 | 4.21 | 4.84 | Nc1nc(N)c2nc(-c3cccc(F)c3)c(N)nc2n1 [6-(3-fluorophenyl)pteridine-2,4,7-triamine (16)] |  |
|  | 4.91 | 4.58 | COc1cccc(-c2nc3c(N)nc(N)nc3nc2N)c1 [6-(3-methoxyphenyl)pteridine-2,4,7-triamine (20)] |  |
|  | 4.09 |  | Nc1ccc(-c2nc3c(N)nc(N)nc3nc2N)cc1 [6-(4-aminophenyl)pteridine-2,4,7-triamine (10)] |  |
|  | 4.79 | 4.81 | Nc1nc(N)c2nc(-c3cccnc3)c(N)nc2n1 [6-(pyridin-3-yl)pteridine-2,4,7-triamine (33)] |  |
| 4.85 | 4.61 | 5.09 | Nc1nc(N)c2nc(-c3cccs3)c(N)nc2n1 [6-(thiophen-2-yl)pteridine-2,4,7-triamine (32)] |  |
|  | 4.69 |  | Cc1cccc(-c2nc3c(N)nc(N)nc3nc2N)c1 [6-m-Tolyl-pteridine-2,4,7-triamine] |  |
| 4.53 | 4.09 | 5.22 | Nc1nc(N)c2nc(-c3ccccc3)cnc2n1 [6-phenylpteridine-2,4-diamine (35)] |  |
| 5.26 | 5.02 | 5.18 | Nc1nc(N)c2nc(-c3cccc(Oc4ccccc4)c3)c(Cc3ccccc3)nc2n1 [7-benzyl-6-(3-phenoxyphenyl)pteridine-2,4-diamine (36)] |  |
| 5.05 | 6.30 | 5.33 | Nc1nc(N)c2nc(-c3cccc(Cl)c3)c(N)nc2n1 [Epiblastin A] | pIC50 [4]: 5.08; pIC50 [5]: 4.56; pIC50 [6]: 4.35; pIC50 [7]: 4.42; pIC50 [8]: 4.62 |
| 4.43 | 4.44 | 4.57 | Nc1nc(N)c2nc(-c3ccccc3)c(N)nc2n1 [Pteridine deriv. 11] |  |
